# Source: ChEMBL document CHEMBL4152365, “Discovery of DS-6930, a potent selective PPARγ modulator. Part I: Lead identification” (Bioorg Med Chem, 2018)
# Active and inactive are the calls of the source. The rule behind the calls is not given here.
# Key:
# Mus musculus [1] = assay: Glucose-lowering effect in hyperglycemic KK/Ta mouse assessed as reduction in plasma glucose level at 30 mg/kg/day, po administered through diet for 3 days relative to control; type: functional; parameters: scale not given: the % may be the effect or the level left
# [2] = 1-octanol/PBS distribution co-efficient, log D of the compound at […] at pH 7.4 after 30 mins by HPLC-MS/MS analysis; type: physicochemical
# Mus musculus [3] = assay: Toxicity in hyperglycemic KK/Ta mouse assessed as body weight gain at 30 mg/kg/day, po administered through diet for 3 days relative to control; type: organism-based; conditions: in vivo, 72 h
# [4] = target: T1, Peroxisome proliferator-activated receptor gamma (Homo sapiens) (UniProt P37231); assay: Agonist activity at recombinant human GAL4-DBD fused PPARgamma LBD expressed in COS7 cells at 10 uM after 24 hrs by luciferase reporter gene assay relative to rosiglitazone; type: cell-based
# T1 sequence (whole entry): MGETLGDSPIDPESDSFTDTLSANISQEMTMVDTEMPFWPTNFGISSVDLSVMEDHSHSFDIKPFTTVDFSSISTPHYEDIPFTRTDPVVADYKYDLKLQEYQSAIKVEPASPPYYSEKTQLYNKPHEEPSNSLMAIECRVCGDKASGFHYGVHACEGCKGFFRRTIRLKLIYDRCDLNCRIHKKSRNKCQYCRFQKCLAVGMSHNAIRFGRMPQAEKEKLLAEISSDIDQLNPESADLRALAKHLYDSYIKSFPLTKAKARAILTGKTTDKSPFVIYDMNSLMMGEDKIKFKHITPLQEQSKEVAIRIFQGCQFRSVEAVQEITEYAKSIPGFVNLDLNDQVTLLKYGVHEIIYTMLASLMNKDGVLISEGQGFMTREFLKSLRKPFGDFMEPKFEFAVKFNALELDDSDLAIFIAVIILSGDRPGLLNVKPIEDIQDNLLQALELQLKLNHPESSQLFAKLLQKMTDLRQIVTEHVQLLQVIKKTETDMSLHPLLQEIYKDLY
# [5] = target: T2, Peroxisome proliferator-activated receptor alpha (Homo sapiens) (UniProt Q07869); assay: Agonist activity at recombinant human GAL4-DBD fused PPARalpha LBD expressed in COS7 cells at 10 uM after 24 hrs by luciferase reporter gene assay relative to 2-(4-tert-Butylphenoxy)-3-[4-[2-[(4-pyridin-2-ylbenzoyl)amino]ethoxy]; type: cell-based
# T2 sequence (whole entry): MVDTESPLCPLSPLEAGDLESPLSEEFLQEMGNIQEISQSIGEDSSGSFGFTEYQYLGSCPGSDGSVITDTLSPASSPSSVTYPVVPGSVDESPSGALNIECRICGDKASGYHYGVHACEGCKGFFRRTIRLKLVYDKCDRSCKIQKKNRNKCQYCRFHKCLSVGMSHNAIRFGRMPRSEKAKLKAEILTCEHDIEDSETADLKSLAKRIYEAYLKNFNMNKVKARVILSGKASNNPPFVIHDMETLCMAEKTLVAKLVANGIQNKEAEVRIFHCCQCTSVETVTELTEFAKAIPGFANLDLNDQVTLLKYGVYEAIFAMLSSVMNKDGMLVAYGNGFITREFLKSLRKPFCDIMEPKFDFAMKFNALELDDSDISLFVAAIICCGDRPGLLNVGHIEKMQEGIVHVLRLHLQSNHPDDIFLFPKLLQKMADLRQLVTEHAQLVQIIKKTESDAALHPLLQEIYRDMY
# [6] = Metabolic stability in human liver microsomes after 0.5 hrs; type: ADME, microsome; conditions: read-out: Stability
# [7] = target: T3, Peroxisome proliferator-activated receptor gamma (Homo sapiens, UniProt P37231); assay: Agonist activity at recombinant human GAL4-DBD fused PPARgamma LBD expressed in COS7 cells after 24 hrs by luciferase reporter gene assay; type: cell-based
# T3 sequence (P37231 whole entry): T1 sequence (whole entry)
# [8] = target: T4, Peroxisome proliferator-activated receptor alpha (Homo sapiens, UniProt Q07869); assay: Agonist activity at recombinant human GAL4-DBD fused PPARalpha LBD expressed in COS7 cells after 24 hrs by luciferase reporter gene assay; type: cell-based
# T4 sequence (Q07869 whole entry): T2 sequence (whole entry)
# [9] = Aqueous thermodynamic solubility of the compound in pH 6.8 solution up to 4 hrs by HPLC-UV analysis; type: physicochemical; conditions: read-out: Therm_solubility
# [10] = target: T5, Peroxisome proliferator-activated receptor delta (Homo sapiens) (UniProt Q03181); assay: Agonist activity at PPARdelta (unknown origin) at 10 uM
# T5 sequence (whole entry): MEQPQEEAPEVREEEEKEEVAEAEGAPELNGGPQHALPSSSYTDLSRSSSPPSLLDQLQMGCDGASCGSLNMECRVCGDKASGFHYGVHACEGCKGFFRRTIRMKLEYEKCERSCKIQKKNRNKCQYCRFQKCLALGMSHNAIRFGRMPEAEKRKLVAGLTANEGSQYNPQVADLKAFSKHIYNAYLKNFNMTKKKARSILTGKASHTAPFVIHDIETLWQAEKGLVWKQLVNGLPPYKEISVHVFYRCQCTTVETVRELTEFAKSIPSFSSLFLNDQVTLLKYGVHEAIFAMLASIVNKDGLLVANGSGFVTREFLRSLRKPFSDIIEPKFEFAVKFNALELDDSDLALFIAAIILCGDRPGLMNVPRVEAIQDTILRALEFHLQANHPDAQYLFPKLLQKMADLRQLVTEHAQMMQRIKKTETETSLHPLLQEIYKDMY
# [11] = Plasma concentration in hyperglycemic KK/Ta mouse at 30 mg/kg/day, po administered through diet for 3 days measured on day 3 post last dose; type: ADME, organism-based
structure (smiles),measurement,setting,value
Cn1c(COc2cccc(C(=O)O)c2)nc2ccc(Oc3cccc(F)c3F)cc21,Activity,Mus musculus [1],35.8%
same,logD at 0.5 h,[2],2.1
same,Activity,Mus musculus [3],4.3%
same,Emax,[4],86%
same,Emax,[5],52%
same,remaining at 0.5 h,[6],88%
same,EC50,[7],230 nM
Cn1c(COc2cccc(C(=O)O)c2)nc2ccc(Oc3ccccc3F)cc21,EC50,[8],> 10000 nM
same,logD at 0.5 h,[2],1.7
same,Emax,[4],125%
same,Emax,[5],21%
same,solubility thermodynamic at 4 h,[9],12 µg/mL
same,Activity,[10],inactive
same,EC50,[7],1430 nM
Cc1cc(Oc2ccc3nc(COc4cccc(C#N)c4)n(C)c3c2)cc(C)c1N,Emax,[4],92%
same,EC50,[7],43 nM
Cn1c(COc2cccc(C(=O)O)c2)nc2ccc(Oc3ccc(F)cc3F)cc21,Activity,Mus musculus [1],37.6%
same,EC50,[8],> 10000 nM
same,logD at 0.5 h,[2],1.9
same,Activity,Mus musculus [3],3.7%
same,Emax,[4],77%
same,Emax,[5],17%
same,solubility thermodynamic at 4 h,[9],11 µg/mL
same,remaining at 0.5 h,[6],100%
same,concentration at 72 h,[11],370 ng/mL
same,EC50,[7],143 nM
Cc1ccc(F)c(Oc2ccc3nc(COc4cccc(C(=O)O)c4)n(C)c3c2)c1,Activity,Mus musculus [1],49.4%
same,EC50,[8],> 10000 nM
same,logD at 0.5 h,[2],2.4
same,Activity,Mus musculus [3],1.6%
same,Emax,[4],111%
same,Emax,[5],37%
same,solubility thermodynamic at 4 h,[9],11 µg/mL
same,remaining at 0.5 h,[6],83%
same,concentration at 72 h,[11],120 ng/mL
same,EC50,[7],139 nM
Cl.Cn1c(COc2cccc(C(=O)O)c2)nc2ccc(Oc3ccc(F)c(F)c3)cc21,Activity,Mus musculus [1],56%
same,EC50,[8],> 10000 nM
same,logD at 0.5 h,[2],2
same,Activity,Mus musculus [3],3.4%
same,Emax,[4],71%
same,Emax,[5],39%
same,remaining at 0.5 h,[6],100%
same,concentration at 72 h,[11],160 ng/mL
same,EC50,[7],118 nM
COc1ccc2nc(COc3ccc(CC4SC(=O)NC4=O)cc3)n(C)c2c1 (stereo unspecified) [RIVOGLITAZONE],Emax,[4],126%
same,EC50,[7],43 nM
Cn1c(COc2cccc(C(=O)O)c2)nc2ccc(Oc3cc(F)cc(Cl)c3)cc21,Activity,Mus musculus [1],57.5%
same,EC50,[8],> 10000 nM
same,logD at 0.5 h,[2],2.8
same,Activity,Mus musculus [3],3.1%
same,Emax,[4],78%
same,Emax,[5],43%
same,solubility thermodynamic at 4 h,[9],0.9 µg/mL
same,remaining at 0.5 h,[6],78%
same,concentration at 72 h,[11],370 ng/mL
same,EC50,[7],23 nM
Cl.Cn1c(COc2cccc(C(=O)O)c2)nc2ccc(Oc3ccccc3)cc21,logD at 0.5 h,[2],1.8
same,Emax,[4],90%
same,solubility thermodynamic at 4 h,[9],2 µg/mL
same,Activity,[10],inactive
same,remaining at 0.5 h,[6],100%
Cl.Cn1c(COc2cccc(C(=O)O)c2)nc2ccc(Oc3ccc(F)c(Cl)c3)cc21,Activity,Mus musculus [1],30%
same,logD at 0.5 h,[2],2.8
same,Activity,Mus musculus [3],3.7%
same,Emax,[4],79%
same,Emax,[5],52%
same,concentration at 72 h,[11],170 ng/mL
same,EC50,[7],64 nM
Cc1cc(Oc2ccc3nc(COc4ccc(C(=O)O)cc4)n(C)c3c2)cc(C)c1N,Emax,[4],91%
same,EC50,[7],797 nM
Cc1cc(Oc2ccc3nc(COc4ccc(CC5SC(=O)NC5=O)cc4)n(C)c3c2)cc(C)c1N (stereo unspecified) [EFATUTAZONE],Emax,[4],100%
same,EC50,[7],0.038 nM
Cc1cc(Oc2ccc3nc(COc4ccccc4)n(C)c3c2)cc(C)c1N,Emax,[4],73%
same,EC50,[7],318 nM
Cn1c(COc2cccc(C(=O)O)c2)nc2ccc(Oc3ccc4ccoc4c3)cc21,Activity,Mus musculus [1],48.3%
same,EC50,[8],> 10000 nM
same,logD at 0.5 h,[2],2.4
same,Activity,Mus musculus [3],2.5%
same,Emax,[4],79%
same,Emax,[5],37%
same,solubility thermodynamic at 4 h,[9],0.8 µg/mL
same,remaining at 0.5 h,[6],100%
same,concentration at 72 h,[11],380 ng/mL
same,EC50,[7],188 nM
Cl.Cn1c(COc2cccc(C(=O)O)c2)nc2ccc(Oc3ccc4c(c3)CCO4)cc21,EC50,[8],> 10000 nM
same,logD at 0.5 h,[2],1.7
same,Emax,[4],60%
same,Emax,[5],8%
same,solubility thermodynamic at 4 h,[9],7.6 µg/mL
same,remaining at 0.5 h,[6],87%
same,EC50,[7],87 nM
CC(=O)c1ccccc1OCc1nc2ccc(Oc3cc(C)c(N)c(C)c3)cc2n1C,Emax,[4],96%
same,EC50,[7],356 nM
Cc1cc(Oc2ccc3nc(COc4cccc(C(=O)O)c4)n(C)c3c2)ccc1F.Cl,Activity,Mus musculus [1],49.4%
same,EC50,[8],> 10000 nM
same,logD at 0.5 h,[2],2.3
same,Activity,Mus musculus [3],3.5%
same,Emax,[4],61%
same,Emax,[5],28%
same,remaining at 0.5 h,[6],69%
same,concentration at 72 h,[11],190 ng/mL
same,EC50,[7],62 nM
Cc1cc(Oc2ccc3nc(COc4cccc(C(=O)O)c4)n(C)c3c2)cc(C)c1N.Cl.Cl,logD at 0.5 h,[2],1.4
same,Emax,[4],73%
same,solubility thermodynamic at 4 h,[9],11 µg/mL
same,remaining at 0.5 h,[6],88%
CC(=O)c1ccc(OCc2nc3ccc(Oc4cc(C)c(N)c(C)c4)cc3n2C)cc1,Emax,[4],70%
same,EC50,[7],340 nM
CC(=O)c1cccc(OCc2nc3ccc(Oc4cc(C)c(N)c(C)c4)cc3n2C)c1,Emax,[4],86%
same,EC50,[7],65 nM
Cc1ccc(F)cc1Oc1ccc2nc(COc3cccc(C(=O)O)c3)n(C)c2c1,Activity,Mus musculus [1],26.4%
same,EC50,[8],> 10000 nM
same,logD at 0.5 h,[2],2.5
same,Activity,Mus musculus [3],5.1%
same,Emax,[4],84%
same,Emax,[5],17%
same,solubility thermodynamic at 4 h,[9],0.6 µg/mL
same,remaining at 0.5 h,[6],64%
same,EC50,[7],39 nM
Cn1c(COc2cccc(C(=O)O)c2)nc2ccc(Oc3cc(F)cc(F)c3)cc21,Activity,Mus musculus [1],39.5%
same,EC50,[8],> 10000 nM
same,logD at 0.5 h,[2],2.3
same,Activity,Mus musculus [3],4.4%
same,Emax,[4],54%
same,Emax,[5],33%
same,solubility thermodynamic at 4 h,[9],10 µg/mL
same,concentration at 72 h,[11],360 ng/mL
same,EC50,[7],95 nM
Cn1c(COc2cccc(C(=O)O)c2)nc2ccc(Oc3c(F)cccc3F)cc21,EC50,[8],> 10000 nM
same,logD at 0.5 h,[2],1.8
same,Emax,[4],76%
same,Emax,[5],19%
same,remaining at 0.5 h,[6],85%
same,EC50,[7],1330 nM
Cc1cc(Oc2ccc3nc(COc4ccccc4C(=O)O)n(C)c3c2)cc(C)c1N,Emax,[4],52%
same,EC50,[7],6090 nM
Cc1cc(F)cc(Oc2ccc3nc(COc4cccc(C(=O)O)c4)n(C)c3c2)c1,Activity,Mus musculus [1],58.3%
same,EC50,[8],> 10000 nM
same,logD at 0.5 h,[2],2.7
same,Activity,Mus musculus [3],1.7%
same,Emax,[4],84%
same,Emax,[5],29%
same,solubility thermodynamic at 4 h,[9],0.5 µg/mL
same,remaining at 0.5 h,[6],100%
same,concentration at 72 h,[11],190 ng/mL
same,EC50,[7],21 nM
CCc1ccc2ccc(F)cc2c1CNC(=O)c1c(OC)cc(O)c2c1OC1=CC(O)=C(C(C)=O)C(=O)[C@]12C,Emax,[4],64%
same,EC50,[7],12 nM
Cc1cc(Oc2ccc3nc(COc4ccc(C#N)cc4)n(C)c3c2)cc(C)c1N,Emax,[4],79%
same,EC50,[7],395 nM
CCOc1cccc(Oc2ccc3nc(COc4cccc(C(=O)O)c4)n(C)c3c2)c1,Activity,Mus musculus [1],22%
same,EC50,[8],> 10000 nM
same,logD at 0.5 h,[2],2.4
same,Activity,Mus musculus [3],3.3%
same,Emax,[4],56%
same,Emax,[5],37%
same,Activity,[10],inactive
same,EC50,[7],40 nM
Cc1cc(Oc2ccc3nc(COc4ccccc4C#N)n(C)c3c2)cc(C)c1N,Emax,[4],80%
same,EC50,[7],391 nM
